Experimental findings from patent US5366982A (priority 1990, dated 1994) are described below.

As a reminder, the IC50 is the midpoint of a concentration-inhibition curve. Broadly, the inhibition is the relative decrease from the control value, in per cent.

For the first assay, the target named is leukotriene B4 receptors (Cavia porcellus, UniProt H0VYV8). As to the kind of experiment: biochemical. The settings on record: Table XIX; guinea-pig spleen membranes, tritium-labelled LTB4; read-out: IC50 Binding (Cheng). It is filed as binding, guinea-pig.
Chain of leukotriene B4 receptors (H0VYV8 1-348): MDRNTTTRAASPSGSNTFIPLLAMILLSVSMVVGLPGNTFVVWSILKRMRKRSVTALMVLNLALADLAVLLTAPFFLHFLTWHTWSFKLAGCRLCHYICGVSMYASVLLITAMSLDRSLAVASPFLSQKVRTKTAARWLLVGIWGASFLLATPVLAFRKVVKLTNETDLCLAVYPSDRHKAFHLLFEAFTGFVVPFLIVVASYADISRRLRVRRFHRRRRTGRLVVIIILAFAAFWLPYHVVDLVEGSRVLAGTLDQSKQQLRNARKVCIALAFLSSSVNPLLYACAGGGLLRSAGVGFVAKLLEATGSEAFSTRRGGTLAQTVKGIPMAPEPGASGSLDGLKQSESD
As for `O=C(O)COCCCOc1cc(-c2ccccc2)cc(-c2ccccc2)n1`, the concentration for half-maximal inhibition (IC50) was found to be 0.1 µM.

`O=C(O)CCCCCCCSc1nc(-c2ccccc2)c2ccccc2n1`: the half-inhibitory concentration (IC50) amounted to 9 µM.

For the molecule `O=C(O)CCCCCCCSc1ncc(-c2ccccc2)c(-c2ccccc2)n1`, the IC50 is 3 µM.

Regarding `O=C(O)CCCCCCCOc1ccc(-c2ccccc2)c(-c2ccccc2)n1`, the 50% inhibitory concentration (IC50) was found to be 10 µM.

With `O=C(O)CCCCCCCOc1cccc(-c2ccccc2)n1`, the concentration for half-maximal inhibition (IC50) was found to be 6 µM.

With “6-[(6-cyclopropyl-5-phenyl-2-pyridyl)oxy]hexanoic acid”, the IC50 came out at 0.04 µM.

For `CC(C)(CCCCOc1cc(-c2ccccc2)c2ccccc2n1)C(=O)O` [2,2-dimethyl-6-[(4-phenyl-2-quinolyl)oxy]hexanoic acid], the IC50 came out at 0.15 µM.

With `CC(C)(CCCCOc1cc(-c2ccccc2)c2cc(Cl)ccc2n1)C(=O)O` [2,2-dimethyl-6-[(6-chloro-4-phenyl-2-quinolyl)oxy}hexanoic acid], the half-maximal inhibitory concentration (IC50) amounted to 2.5 µM.

`Cc1ccc2c(-c3ccccc3)cc(OCCCCC(C)(C)C(=O)O)nc2c1` [2,2-dimethyl-6-[(7-methyl-4-phenyl-2-quinolyl)oxy]hexanoic acid]: the 50% inhibitory concentration (IC50) came out at 2 µM.

As to `CC(C)(CCCCOc1cc(-c2cccs2)c2ccccc2n1)C(=O)O` [2,2-dimethyl-6-{[4-(2-thienyl)-2-quinolyl]oxy}hexanoic acid], the IC50 is 0.2 µM.

Regarding `CC(C)(CCCCOc1cc(-c2ccc(Cl)c(Cl)c2)c2ccccc2n1)C(=O)O` [2,2-dimethyl-6-{[4-(3,4-dichlorophenyl)-2-quinolyl]oxy}hexanoic acid], the IC50 is 3.5 µM.

For `CC(C)(CCCCOc1cc(-c2cccc(Cl)c2)c2ccccc2n1)C(=O)O` [2,2-dimethyl-6-{[4-(3-chlorophenyl)-2-quinolyl]oxy}hexanoic acid], the half-maximal inhibitory concentration (IC50) came to 1.1 µM.

`COc1cccc(-c2cc(OCCCCC(C)(C)C(=O)O)nc3ccccc23)c1` [2,2-dimethyl-6-{[4-(3-methoxyphenyl)-2-quinolyl]oxy}hexanoic acid]: the IC50 was 0.3 µM.

On to `Cc1cccc(-c2cc(OCCCCC(C)(C)C(=O)O)nc3ccccc23)c1` [2,2-dimethyl-6-{[4-(3-tolyl)-2-quinolyl]oxy}hexanoic acid], for which the half-maximal inhibitory concentration (IC50) amounted to 3.5 µM.

With `CC(C)(CCCCOc1cc(-c2ccc(N)cc2)c2ccccc2n1)C(=O)O` [2,2-dimethyl-6-{[4-(4-aminophenyl)-2-quinolyl]oxy}hexanoic acid], the IC50 was 0.04 µM.

As to `CC(C)(CCCCOc1cc(-c2ccc(Cl)cc2)c2ccccc2n1)C(=O)O` [2,2-dimethyl-6-{[4-(4-chlorophenyl)-2-quinolyl]oxy}hexanoic acid], the IC50 worked out at 0.015 µM.

On to `CC(C)(CCCCOc1cc(-c2ccc(Cl)cc2)cc(-c2ccccc2)n1)C(=O)O` [2,2-dimethyl-6-{[4-(4-chlorophenyl)-6-phenyl-2-pyridyl]oxy}hexanoic acid], for which the concentration for half-maximal inhibition (IC50) was found to be 0.1 µM.

`CN(C)c1ccc(-c2cc(OCCCCC(C)(C)C(=O)O)nc3ccccc23)cc1` [2,2-dimethyl-6-{[4-(4-dimethylaminophenyl)-2-quinolyl]oxy}hexanoic acid]: the IC50 came to 0.03 µM.

As to `CC(C)(CCCCOc1cc(-c2ccc(F)cc2)c2ccccc2n1)C(=O)O` [2,2-dimethyl-6-{[4-(4-fluorophenyl-2-quinolyl]oxy}hexanoic acid], the concentration for half-maximal inhibition (IC50) amounted to 0.15 µM.

`CC(C)(CCCCOc1cc(-c2ccc([N+](=O)[O-])cc2)c2ccccc2n1)C(=O)O` [2,2-dimethyl-6-{[4-(4-nitrophenyl)-2-quinolyl]oxy}hexanoic acid]: the IC50 came out at 0.15 µM.

On to `Cc1ccc(-c2cc(OCCCCC(C)(C)C(=O)O)nc3ccccc23)cc1` [2,2-dimethyl-6-{[4-(4-tolyl)-2-quinolyl]oxy}hexanoic acid], for which the IC50 stood at 0.03 µM.

`CC(C)(CCCCOc1cc(-c2ccc(C(F)(F)F)cc2)c2ccccc2n1)C(=O)O` [2,2-dimethyl-6-{[4-(4-trifluoromethylphenyl)-2-quinolyl]oxy}hexanoic acid]: the IC50 stood at 0.3 µM.

`CC(C)(CCCCCCSc1ncc(-c2ccccc2)c(-c2ccccc2)n1)C(=O)O` [2,2-dimethyl-8-(4,5-diphenyl-2-pyrimidylthio)octanoic acid]: the IC50 is 2.5 µM.

Consider `CC(C)(CCCCCCOc1cc(-c2ccccc2)cc(-c2ccccc2)n1)C(=O)O` [2,2-dimethyl-8-[(4,6-diphenyl-2-pyridyl)oxy]octanoic acid], for which the IC50 amounted to 0.022 µM.

In the case of `CCC(C)(CCCCOc1cc(-c2ccccc2)c2ccccc2n1)C(=O)O` (stereo not drawn) [2-ethyl-2-methyl-6-[(4-phenyl-2-quinolyl)oxy]hexanoic acid], the half-inhibitory concentration (IC50) came out at 0.11 µM.

Turning to `CCC(CCCCOc1cc(-c2ccc(Cl)cc2)c2ccccc2n1)C(=O)O` (stereo not drawn) [2-ethyl-6-{[4-(4-chlorophenyl)-2-quinolyl]oxy}hexanoic acid], the IC50 is 0.2 µM.

`CC(CCCCOc1cc(-c2ccccc2)c2ccccc2n1)C(=O)O` (stereo not drawn) [2-methyl-6-[(4-phenyl-2-quinolyl)oxy]hexanoic acid]: the IC50 worked out at 0.55 µM.

As for `CC(CCCCOc1cc(-c2ccc(Cl)cc2)c2ccccc2n1)C(=O)O` (stereo not drawn) [2-methyl-6-{[4-(4-chlorophenyl)-2-quinolyl]oxy}hexanoic acid], the IC50 is 0.03 µM.

Turning to `COc1ccc(-c2cc(OCCCCC(C)C(=O)O)nc3ccccc23)cc1` (stereo not drawn) [2-methyl-6-{[4-(4-methoxyphenyl)-2-quinolyl]oxy}hexanoic acid], the half-maximal inhibitory concentration (IC50) came to 0.016 µM.

Take `O=C(CCCOc1cc(-c2ccccc2)cc(-c2ccccc2)n1)Nc1ccccc1` [4-[(4,6-diphenyl-2-pyridyl)oxy]butanilide]: the half-maximal inhibitory concentration (IC50) was over 1 µM.

For the molecule `O=C(O)CCCOc1cc(-c2ccccc2)cc(-c2ccccc2)n1` [4-[(4,6-diphenyl-2-pyridyl)oxy]butanoic acid], the IC50 amounted to 0.3 µM.

In the case of `CC(C)(CCCCOc1cc(-c2ccccc2)c2ccccc2n1)c1nnn[nH]1` [5-{1,1-dimethyl-5-[(4-phenyl-2-quinolyl)oxy]pentyl}-[1H]-tetrazole], the half-maximal inhibitory concentration (IC50) amounted to 0.4 µM.

On to `CC(C)(CCCCOc1cc(-c2ccc(Cl)cc2)c2ccccc2n1)c1nnn[nH]1` [5-{1,1-dimethyl-5-{[4-(4-chlorophenyl)-2-quinolyl]oxy}pentyl}-[1H]-tetrazole], for which the IC50 was 0.03 µM.

As to `c1ccc(-c2cc(OCCCCCc3nnn[nH]3)nc3ccccc23)cc1` [5-{5-[(4-phenyl-2-quinolyl)oxy]pentyl}-[1H]-tetrazole], the half-maximal inhibitory concentration (IC50) came out at 0.5 µM.

Turning to `Clc1ccc(-c2cc(OCCCCCc3nnn[nH]3)nc3ccccc23)cc1` [5-{5-{[4-(4-chlorophenyl)-2-quinolyl]oxy}pentyl}-[1H]-tetrazole], the IC50 stood at 0.025 µM.

Regarding `c1ccc(-c2cc(-c3ccc4c(c3)OCO4)cc(OCCCCCc3nnn[nH]3)n2)cc1` [5-{5-{[6-phenyl-4-(3,4-methylenedioxyphenyl)-2-pyridyl]oxy}pentyl}-1H-tetrazole], the IC50 worked out at 0.002 µM.

As to `O=C(O)CCCCCOc1cc(-c2ccccc2)cc(-c2ccccc2)c1` [6-(3,5-diphenyl-phenoxy)hexanoic acid], the IC50 came to 0.008 µM.

Consider `O=C(O)CCCCCSc1ncc(-c2ccccc2)c(-c2ccccc2)n1` [6-(4,5-diphenyl-2-pyrimidylthio)hexanoic acid], for which the half-inhibitory concentration (IC50) was 8 µM.

Regarding `COc1ccc(-c2cnc(OCCCCCC(=O)O)nc2-c2ccc(OC)cc2)cc1` [6-[4,5-bis-(4-methoxyphenyl)-2-pyrimidyloxy]hexanoic acid], the 50% inhibitory concentration (IC50) worked out at 8 µM.

With `O=C(O)CCCCCOc1nc(-c2ccccc2)cc(-c2ccccc2)n1` [6-[(4,6-diphenyl-2-pyrimidyl)oxy]hexanoic acid], the half-inhibitory concentration (IC50) amounted to 0.15 µM.

Consider `O=C(O)CCCCCOc1cc(-c2ccccc2)ccn1` [6-[(4-phenyl-2-pyridyl)oxy]hexanoic acid], for which the 50% inhibitory concentration (IC50) is 0.9 µM.

Regarding `O=C(O)CCCCCOc1cc(-c2ccccc2)c2ccccc2n1` [6-[(4-phenyl-2-quinolyl)oxy]hexanoic acid], the IC50 turned out to be 0.7 µM.

For the molecule `CC(C)(CCCCOc1ccc(-c2ccccc2)c(-c2ccccc2)n1)C(=O)O` [6-[(5,6-diphenyl-2-pyridyl)oxy]-2,2-dimethylhexanoic acid], the IC50 turned out to be 10 µM.

`Cc1cc(-c2ccccc2)cc(OCCCCC(C)(C)C(=O)O)n1` [6-[(6-methyl-4-phenyl-2-pyridyl)oxy]-2,2-dimethylhexanoic acid]: the half-maximal inhibitory concentration (IC50) worked out at 0.01 µM.

For `Cc1cc(-c2ccccc2)cc(OCCCCCC(=O)O)n1` [6-[(6-methyl-4-phenyl-2-pyridyl)oxy]hexanoic acid], the IC50 stood at 0.2 µM.

For the molecule `Cc1ccc2nc(OCCCCC(C)(C)C(=O)O)cc(-c3ccccc3)c2c1` [6-[(6-methyl-4-phenyl-2-quinolyl)oxy]-2,2-dimethylhexanoic acid], the 50% inhibitory concentration (IC50) was found to be 5 µM.

For the molecule `CC(C)(CCCCOc1cccc(-c2ccccc2)n1)C(=O)O` [6-[(6-phenyl-2-pyridyl)oxy]-2,2-dimethylhexanoic acid], the half-maximal inhibitory concentration (IC50) is 2 µM.

As to `O=C(O)CCCCCOc1cc(-c2ccc(Cl)cc2)cc(-c2ccc(Cl)cc2)n1` [6-{[4,6-di(4-chlorophenyl)-2-pyridyl]oxy}hexanoic acid], the IC50 is 1.2 µM.

Staying with this assay, now noted: read-out: Binding (Cheng) % Inhibition at 10 μM.
As for `O=C(CCCCCOc1cc(-c2ccccc2)c2ccccc2n1)N1CCCC1` [1-[6-(4-phenyl-2-quinolyloxy)hexanoyl]pyrrolidine], the inhibition at 10 µM amounted to 12%.

On to `CC(C)(CCCCSc1cc(-c2ccccc2)c2ccccc2n1)C(=O)O` [2,2-dimethyl-6-[(4-phenyl-2-quinolyl)thio]hexanoic acid], for which the inhibition at 10 µM is 33%.

As for `O=C(O)CCCCCOc1ncc(-c2ccccc2)c(-c2ccccc2)n1` [6-(4,5-diphenyl-2-pyrimidyloxy)hexanoic acid], the inhibition at 10 µM was 35%.

With `O=C(O)CCCCCOc1ncc(-c2ccc(Cl)cc2)c(-c2ccc(Cl)cc2)n1` [6-[4,5-bis-(4-chlorophenyl)-2-pyrimidyloxy]hexanoic acid], the inhibition at 10 µM worked out at 48%.

In the case of `O=C(O)CCCCCOc1ccc(-c2ccccc2)c(-c2ccccc2)n1` [6-[(5,6-diphenyl-2-pyridyl)oxy]hexanoic acid], the inhibition at 10 µM was determined as 15%.

As to `COc1ccc2nc(OCCCCCC(=O)O)cc(-c3ccccc3)c2c1` [6-[(6-methoxy-4-phenyl-2-quinolyl)oxy]hexanoic acid], the inhibition at 10 µM is 30%.
